Reference: patent US20210169892A1, “MODULATORS OF THE INTEGRATED STRESS PATHWAY” (Calico Life Sciences LLC, priority 2017, published 2021)

test system: HEK293T cells carrying the ATF4 luciferase reporter; assay: ATF4-Luc assay (in vitro model of vanishing white matter disease); assay type: cell-based; conditions: Homo sapiens, HEK-293T; HEK293T cells with ATF4 luciferase reporter, 1 μg/mL tunicamycin, 7 hours, One Glo luminescence
Protocol: In order to test exemplary compounds of the invention in a cellular context, a stable VWMD cell line was first constructed. The ATF4 reporter was prepared by fusing the human full-length ATF4 5′-UTR (NCBI Accession No. BC022088.2) in front of the firefly luciferase (FLuc) coding sequence lacking the initiator methionine as described in Sidrauski et al (eLife 2013). The construct was used to produce recombinant retroviruses using standard methods and the resulting viral supernatant was used to transduce HEK293T cells, which were then subsequently selected with puromycin to generate a stable cell line.
HEK293T cells carrying the ATF4 luciferase reporter were plated on polylysine coated 384-well plates (Greiner Bio-one) at 30,000 cells per well. Cells were treated the next day with 1 μg/mL tunicamycin and 200 nM of a compound of Formula (I) for 7 hours. Luminescence was measured using One Glo (Promega) as specified by the manufacturer. Cells were maintained in DMEM with L-glutamine supplemented with 10% heat-inactivated FBS (Gibco) and Antibiotic-Antimycotic solution (Gibco).
Table 2 below summarizes the EC50 data obtained using the ATF4-Luc assay for exemplary compounds of the invention.

Structure (SMILES)	EC50
O=C(COc1ccc(Cl)c(F)c1)NC12CC(NC(=O)[C@H]3CNc4cc(Cl)ccc4O3)(C1)C2 (single isomer, unassigned) [Compound 102]	< 10 nM
O=C(COc1ccc(Cl)c(F)c1)NC12CC(NC(=O)[C@@H]3CNc4cc(Cl)ccc4O3)(C1)C2 (single isomer, unassigned) [Compound 103]	< 10 nM
CN1C[C@@H](C(=O)NC23CC(NC(=O)COc4ccc(Cl)c(F)c4)(C2)C3)Oc2ccc(Cl)cc21 (single isomer, unassigned) [Compound 104]	< 10 nM
O=C(COc1ccc(Cl)c(F)c1)NC12CC(NC(=O)[C@H]3CN(C(=O)[C@H]4C[C@H]4F)c4cc(Cl)ccc4O3)(C1)C2 (single isomer, unassigned) [Compound 142]	50 to 250 nM
O=C(COc1ccc(Cl)c(F)c1)NC12CC(NC(=O)[C@@H]3CN(C(=O)[C@H]4C[C@H]4F)c4cc(Cl)ccc4O3)(C1)C2 (single isomer, unassigned) [Compound 144]	50 to 250 nM
O=C(COc1ccc(Cl)c(F)c1)NC12CC(NC(=O)[C@@H]3C[C@H](O)c4cc(Cl)ccc4O3)(C1)C2 (single isomer, unassigned) [Compound 195]	< 10 nM
CC(C)(C)OC(=O)CN1C[C@@H](C(=O)NC23CCC(NC(=O)COc4ccc(Cl)c(F)c4)(CC2)C(O)C3)Oc2ccc(Cl)cc21 (stereo in doubt) [Compound 184, tert-butyl [(2S)-6-chloro-2-({(3S)-4-[2-(4-chloro-3-fluorophenoxy)acetamido]-3-hydroxybicyclo[2.2.2]octan-1-yl}carbamoyl)-2,3-dihydro-4H-1,4-benzoxazin-4-yl]acetate]	250 to 500 nM
O=C(COc1ccc(Cl)c(F)c1)NC12CCC(NC(=O)C3Oc4ccccc4O3)(CC1)CC2 [Compound 100, N-{4-[2-(4-chloro-3-fluorophenoxy)acetamido]bicyclo[2.2.2]octan-1-yl}-2H-1,3-benzodioxole-2-carboxamide]	> 2000 nM
O=C(CN1CCc2cc(Cl)ccc21)NC12CCC(NC(=O)COc3ccc(Cl)c(F)c3)(CC1)[C@@H](O)C2 [Compound 101, 2-(5-chloro-2,3-dihydro-1H-indol-1-yl)-N-{(3S)-4-[2-(4-chloro-3-fluorophenoxy)acetamido]-3-hydroxybicyclo[2.2.2]octan-1-yl}acetamide]	500 to 2000 nM
O=C(COc1ccc(Cl)c(F)c1)NC12CCC(NC(=O)[C@@H]3CCc4cc(F)ccc4O3)(CC1)C[C@@H]2O [Compound 105, (2S)—N-{(3S)-4-[2-(4-chloro-3-fluorophenoxy)acetamido]-3-hydroxybicyclo[2.2.2]octan-1-yl}-6-fluoro-3,4-dihydro-2H-1-benzopyran-2-carboxamide]	< 10 nM
O=C(COc1ccc(Cl)c(F)c1)NC12CCC(NC(=O)[C@H]3CCc4cc(F)ccc4O3)(CC1)C[C@@H]2O [Compound 106, (2R)—N-{(3S)-4-[2-(4-chloro-3-fluorophenoxy)acetamido]-3-hydroxybicyclo[2.2.2]octan-1-yl}-6-fluoro-3,4-dihydro-2H-1-benzopyran-2-carboxamide]	< 10 nM
CN1C[C@@H](C(=O)NC23CCC(NC(=O)COc4ccc(Cl)c(F)c4)(CC2)[C@@H](O)C3)Oc2ccc(Cl)cc21 [Compound 107, 6-chloro-N-{(3S)-4-[2-(4-chloro-3-fluorophenoxy)acetamido]-3-hydroxybicyclo[2.2.2]octan-1-yl}-4-methyl-3,4-dihydro-2H-1,4-benzoxazine-2-carboxamide]	< 10 nM
O=C(COc1ccc(Cl)c(F)c1)NC12CC(NC(=O)C3CNc4cc(F)c(F)cc4O3)(C1)C2 (centres unmarked) [Compound 108, N-{3-[2-(4-chloro-3-fluorophenoxy)acetamido]bicyclo[1.1.1]pentan-1-yl}-6,7-difluoro-3,4-dihydro-2H-1,4-benzoxazine-2-carboxamide]	< 10 nM
O=C(COc1ccc(Cl)c(F)c1)NC12CC(NC(=O)C3Oc4ccccc4NC3=O)(C1)C2 (centres unmarked) [Compound 109, N-{3-[2-(4-chloro-3-fluorophenoxy)acetamido]bicyclo[1.1.1]pentan-1-yl}-3-oxo-3,4-dihydro-2H-1,4-benzoxazine-2-carboxamide]	500 to 2000 nM
O=C(COc1ccc(Cl)c(F)c1)NC12CCC(NC(=O)C3CNc4ccccc4O3)(CC1)C[C@@H]2O (stereo partly drawn) [Compound 110, N-{(3S)-4-[2-(4-chloro-3-fluorophenoxy)acetamido]-3-hydroxybicyclo[2.2.2]octan-1-yl}-3,4-dihydro-2H-1,4-benzoxazine-2-carboxamide]	10 to 50 nM
CN1CC(C(=O)NC23CCC(NC(=O)COc4ccc(Cl)c(F)c4)(CC2)[C@@H](O)C3)Oc2ccccc21 (stereo partly drawn) [Compound 111, N-{(3S)-4-[2-(4-chloro-3-fluorophenoxy)acetamido]-3-hydroxybicyclo[2.2.2]octan-1-yl}-4-methyl-3,4-dihydro-2H-1,4-benzoxazine-2-carboxamide]	50 to 250 nM
CN1CC(C(=O)NC23CC(NC(=O)COc4ccc(Cl)c(F)c4)(C2)C3)Oc2ccc(Cl)cc21 (centres unmarked) [Compound 112, 6-chloro-N-{3-[2-(4-chloro-3-fluorophenoxy)acetamido]bicyclo[1.1.1]pentan-1-yl}-4-methyl-3,4-dihydro-2H-1,4-benzoxazine-2-carboxamide]	< 10 nM
O=C(COc1ccc(Cl)c(F)c1)NC12CC(NC(=O)C3CNc4cc(Cl)ccc4O3)(C1)C2 (centres unmarked) [Compound 113, 6-chloro-N-{3-[2-(4-chloro-3-fluorophenoxy)acetamido]bicyclo[1.1.1]pentan-1-yl}-3,4-dihydro-2H-1,4-benzoxazine-2-carboxamide]	< 10 nM
O=C(COc1ccc(Cl)c(F)c1)NC12CCC(NC(=O)C3CNc4cc(Cl)ccc4O3)(CC1)C[C@@H]2O (stereo partly drawn) [Compound 114, 6-chloro-N-{(3S)-4-[2-(4-chloro-3-fluorophenoxy)acetamido]-3-hydroxybicyclo[2.2.2]octan-1-yl}-3,4-dihydro-2H-1,4-benzoxazine-2-carboxamide]	< 10 nM
O=C(COc1ccc(Cl)c(F)c1)NC12CCC(NC(=O)[C@H]3COc4cc(Cl)ccc4O3)(CC1)C[C@@H]2O [Compound 115, (2R)-6-chloro-N-{(3S)-4-[2-(4-chloro-3-fluorophenoxy)acetamido]-3-hydroxybicyclo[2.2.2]octan-1-yl}-2,3-dihydro-1,4-benzodioxine-2-carboxamide]	< 10 nM
O=C(COc1ccc(Cl)c(Cl)c1)NC12CCC(NC(=O)[C@H]3COc4cc(Cl)ccc4O3)(CC1)C[C@@H]2O [Compound 116, (2R)-6-chloro-N-{(3S)-4-[2-(3,4-dichlorophenoxy)acetamido]-3-hydroxybicyclo[2.2.2]octan-1-yl}-2,3-dihydro-1,4-benzodioxine-2-carboxamide]	< 10 nM
O=C(COc1ccc(F)c(F)c1)NC12CC(NC(=O)C3COc4cc(Cl)c(Cl)cc4O3)(C1)C2 (centres unmarked) [Compound 117, 6,7-dichloro-N-{3-[2-(3,4-difluorophenoxy)acetamido]bicyclo[1.1.1]pentan-1-yl}-2,3-dihydro-1,4-benzodioxine-2-carboxamide]	< 10 nM
O=C(COc1ccc(Cl)c(F)c1)NC12CC(NC(=O)C3COc4cc(F)c(F)cc4O3)(C1)C2 (centres unmarked) [Compound 118, N-{3-[2-(4-chloro-3-fluorophenoxy)acetamido]bicyclo[1.1.1]pentan-1-yl}-6,7-difluoro-2,3-dihydro-1,4-benzodioxine-2-carboxamide]	< 10 nM
O=C(COc1ccc(Cl)c(F)c1)NC12CC(NC(=O)[C@H]3COc4cc(Cl)ccc4O3)(C1)C2 [Compound 119, (2R)-6-chloro-N-{3-[2-(4-chloro-3-fluorophenoxy)acetamido]bicyclo[1.1.1]pentan-1-yl}-2,3-dihydro-1,4-benzodioxine-2-carboxamide]	< 10 nM
O=C(COc1ccc(Cl)c(F)c1)NC12CC(NC(=O)[C@H]3CCc4cc(F)ccc4O3)(C1)C2 [Compound 120, (2R)—N-{3-[2-(4-chloro-3-fluorophenoxy)acetamido]bicyclo[1.1.1]pentan-1-yl}-6-fluoro-3,4-dihydro-2H-1-benzopyran-2-carboxamide]	< 10 nM
O=C(COc1ccc(Cl)c(F)c1)NC12CC(NC(=O)[C@@H]3CCc4cc(F)ccc4O3)(C1)C2 [Compound 121, (2S)—N-{3-[2-(4-chloro-3-fluorophenoxy)acetamido]bicyclo[1.1.1]pentan-1-yl}-6-fluoro-3,4-dihydro-2H-1-benzopyran-2-carboxamide]	< 10 nM
O=C(COc1ccc(Cl)c(F)c1)NC12CC(NC(=O)C3COc4ccccc4O3)(C1)C2 (centres unmarked) [Compound 122, N-{3-[2-(4-chloro-3-fluorophenoxy)acetamido]bicyclo[1.1.1]pentan-1-yl}-2,3-dihydro-1,4-benzodioxine-2-carboxamide]	10 to 50 nM
O=C(COc1ccc(Cl)c(F)c1)NC12CCC(NC(=O)C3COc4ccccc4O3)(CC1)[C@H](O)C2 (stereo partly drawn) [Compound 123, N-{(2R)-4-[2-(4-chloro-3-fluorophenoxy)acetamido]-2-hydroxybicyclo[2.2.2]octan-1-yl}-2,3-dihydro-1,4-benzodioxine-2-carboxamide]	250 to 500 nM
O=C(COc1ccc(Cl)c(F)c1)NC12CC(NC(=O)[C@H]3COc4ccccc4O3)(C1)C2 [Compound 124, (2R)—N-{3-[2-(4-chloro-3-fluorophenoxy)acetamido]bicyclo[1.1.1]pentan-1-yl}-2,3-dihydro-1,4-benzodioxine-2-carboxamide]	10 to 50 nM
